# Results taken from patent publication US5597823A, “Tricyclic substituted hexahydrobenz [e]isoindole alpha-1 adrenergic antagonists” (priority 1995, dated 1997).
# Counter-ions that a name gives are not always drawn.
# What was measured:
# Type in all cases: cell-based
# [1] = target: T1, α-1B adrenoceptor (rat spleen) (Rattus norvegicus, UniProt P15823); experiment: Functional antagonism: phenylephrine (PE)-induced contraction of rat spleen; settings: for Kb: vs phenylephrine, Schild plot, read-out: pA2 Rat Spleen [α-1B] (converted)
# T1 construct: PE-induced contraction of rat spleen; from tissue; host or cells: rat spleen
# T1 sequence (P15823 1-515): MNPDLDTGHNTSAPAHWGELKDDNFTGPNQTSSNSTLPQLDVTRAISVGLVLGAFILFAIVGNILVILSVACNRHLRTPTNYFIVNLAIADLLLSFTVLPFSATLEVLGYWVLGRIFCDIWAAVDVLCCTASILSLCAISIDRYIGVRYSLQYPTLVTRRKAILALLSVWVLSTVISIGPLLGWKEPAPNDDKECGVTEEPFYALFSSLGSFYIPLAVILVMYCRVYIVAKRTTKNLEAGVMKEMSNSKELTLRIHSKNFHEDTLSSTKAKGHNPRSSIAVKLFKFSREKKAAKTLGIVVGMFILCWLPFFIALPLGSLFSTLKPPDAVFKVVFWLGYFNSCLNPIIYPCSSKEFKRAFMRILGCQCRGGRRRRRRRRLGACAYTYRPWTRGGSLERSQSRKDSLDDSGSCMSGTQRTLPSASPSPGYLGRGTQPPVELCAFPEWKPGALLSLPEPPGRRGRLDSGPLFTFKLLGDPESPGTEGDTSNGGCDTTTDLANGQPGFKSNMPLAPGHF
# Description: (§1) Functional assays indicative of pharmacologically defined α-1 adrenoceptors were used to further characterize compounds. Inhibition of phenylephrine (PE)-induced contraction of canine prostate smooth muscle can be correlated with α-1A adrenoceptor activation. […] For each of these models, agonist dose response curves were repeated against increasing concentrations of test agent to derive a Schild plot [log ([…]) against log (molarity of test agent)] to determine the pA2.
# [2] = target: T2, α-1A adrenoceptor (dog prostate) (Canis lupus, UniProt A0A8I3NK63); experiment: Functional antagonism: phenylephrine (PE)-induced contraction of canine prostate strips; settings: vs phenylephrine, Schild plot
# T2 sequence (A0A8I3NK63 1-466): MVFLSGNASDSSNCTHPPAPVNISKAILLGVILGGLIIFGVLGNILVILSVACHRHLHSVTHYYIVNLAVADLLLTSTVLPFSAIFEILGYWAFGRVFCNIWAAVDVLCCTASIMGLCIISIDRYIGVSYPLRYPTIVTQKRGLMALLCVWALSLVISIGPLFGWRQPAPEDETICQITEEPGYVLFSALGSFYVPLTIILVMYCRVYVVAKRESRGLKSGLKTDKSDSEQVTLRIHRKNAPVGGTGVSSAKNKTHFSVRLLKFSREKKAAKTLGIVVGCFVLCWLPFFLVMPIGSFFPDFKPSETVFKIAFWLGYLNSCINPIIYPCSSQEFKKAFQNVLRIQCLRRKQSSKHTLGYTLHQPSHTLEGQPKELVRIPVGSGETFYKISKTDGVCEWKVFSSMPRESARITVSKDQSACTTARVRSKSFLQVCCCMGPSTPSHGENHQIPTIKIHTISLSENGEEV
# Description: as §1
# Canine prostate strips were used in vitro as previously described (Hieble, J. P., Boyce, A. J. and Caine, M., Fed. Proc., 45:2609-2614 (1986)), to determine antagonist potencies against phenylephrine-induced contractions.
# [3] = target: T3, α-1A adrenoceptor (rat vas deferens) (Rattus norvegicus, UniProt P43140); experiment: Functional antagonism: phenylephrine (PE)-induced contraction of rat vas deferens; settings: vs phenylephrine; Schild plot; read-out: pA2 Rat Vas Deferens [α-1A] (converted)
# T3 construct: PE-induced contraction of rat vas deferens; from tissue; host or cells: rat vas deferens
# T3 sequence (P43140 1-466): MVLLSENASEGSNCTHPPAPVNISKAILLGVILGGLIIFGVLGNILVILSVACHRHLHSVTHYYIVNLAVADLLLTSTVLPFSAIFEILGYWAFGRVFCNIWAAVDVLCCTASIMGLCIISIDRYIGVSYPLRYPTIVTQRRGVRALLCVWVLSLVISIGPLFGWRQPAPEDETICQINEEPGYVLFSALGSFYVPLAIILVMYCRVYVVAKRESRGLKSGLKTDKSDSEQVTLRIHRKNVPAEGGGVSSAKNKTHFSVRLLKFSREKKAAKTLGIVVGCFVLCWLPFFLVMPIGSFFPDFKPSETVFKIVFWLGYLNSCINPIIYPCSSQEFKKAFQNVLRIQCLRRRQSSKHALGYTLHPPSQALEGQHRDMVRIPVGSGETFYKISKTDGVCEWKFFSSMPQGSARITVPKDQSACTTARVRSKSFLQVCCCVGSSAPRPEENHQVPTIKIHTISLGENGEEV
# Description: as §1
smiles,measurement,setting,value
"COc1cccc2c1CC[C@H]1CN(CCn3c(=O)[nH]c4c(oc5ncccc54)c3=O)C[C@@H]21 [Example 76, hydrochloride]",Kb,[1],23.4 nM
same,pA2 Dog Prostate [α-1A],[2]; Table 2a,8.74
same,Kb,[3],25.1 nM
"COc1cccc2c1CC[C@H]1CN(CCn3c(=O)[nH]c4c([nH]c5ccccc54)c3=O)C[C@@H]21 [Example 26, 3-[2-((3aR,9bR)-cis-6-Methoxy-2,3,3a,4,5,9b-hexahydro-[1 H]-benz[e]isoindol-1-yl)ethyl]-1H-pyrimido[5.4-b]indole-2,4(1H,3H)-dione hydrochloride]",Kb,[1],7.41 nM
same,pA2 Dog Prostate [α-1A],[2]; Table 2a,8.63
same,Kb,[3],2.75 nM
"COc1cccc2c1CC[C@H]1CN(CCn3c(=O)c4sc5ccccc5c4n(C)c3=O)C[C@@H]21 (relative stereo) [Example 11, hydrochloride]",Kb,[1],51.3 nM
same,pA2 Dog Prostate [α-1A],[2]; Table 2a,8.57
same,Kb,[3],2.82 nM
"COc1cccc2c1CC[C@@H]1CN(CCn3c(=O)[nH]c4c(sc5ccccc54)c3=O)C[C@H]21 [Example 8, 3-[2-((3aS,9bS)-cis-6-Methoxy-2,3,3a,4,5,9b-hexahydro-[1H]-benz[e]isoindol-1-yl)ethyl][1]benzothieno[3,2]pyrimidine-2,4(1H,3H)-dione hydrochloride]",Kb,[1],55 nM
same,pA2 Dog Prostate [α-1A],[2]; Table 2a,7.63
same,Kb,[3],17.4 nM
"COc1cccc2c1CC[C@H]1CN(CCn3c(=O)[nH]c4c(sc5cccc(C)c54)c3=O)C[C@@H]21 [Example 69, 3-[2-((3aR,9bR)-cis-6-Methoxy-2,3,3a,4,5,9b-hexahydro-[1H]-benz[e]isoindol-1-yl)ethyl]-[1]-9-methyl-benzothieno[3,2-d]pyrimidine-2,4(1H,3H)-dione hydrochloride]",Kb,[1],69.2 nM
same,pA2 Dog Prostate [α-1A],[2]; Table 2a,8.25
same,Kb,[3],2.51 nM
"COc1ccc2sc3c(=O)n(CCN4C[C@@H]5CCc6c(OC)cccc6[C@@H]5C4)c(=O)[nH]c3c2n1 [Example 64, dihydrochloride]",Kb,[1],25.1 nM
same,pA2 Dog Prostate [α-1A],[2]; Table 2a,9.63
same,Kb,[3],0.794 nM
"COc1cc2nc(N3CCN(C(=O)C4COc5ccccc5O4)CC3)nc(N)c2cc1OC (centres unmarked) [doxazosin, reference compound]",more potent effect on spleen smooth muscle,"[1]; PE-induced contraction, pA2 models compared",more potent effect on spleen smooth muscle by approximately an order of magnitude
"COc1cccc2c1CC[C@H]1CN(CCn3c(=O)[nH]c4c(oc5ccccc54)c3=O)C[C@@H]21 (relative stereo) [Example 3, 3-[2-(cis-6-Methoxy-2,3,3a,4,5,9b-hexahydro-1H]-benz[e]isoindol-1-yl)ethyl]-benzofuro[3,2-d]pyrimidine-2,4(1H,3H)-dione hydrochloride]",pA2 Dog Prostate [α-1A],[2]; Table 2b,8.4
"COc1cccc2c1CC[C@H]1CN(CCn3c(=O)[nH]c4c(sc5ccc(C#N)cc54)c3=O)C[C@@H]21 [Example 43, 3-[2-((3aR,9bR)-cis-6-Methoxy-2,3,3a,4,5,9b-hexahydro-[1H]-benz[e]isoindol-1-yl)ethyl]-[1]-8-cyano-benzothieno[3,2-d]pyrimidine-2,4(1H,3H)-dione hydrochloride]",pA2 Dog Prostate [α-1A],[2]; Table 2b,8.44
"COc1cccc2c1CC[C@H]1CN(CCn3cnc4c([nH]c5ccccc54)c3=O)C[C@@H]21 [Example 66, 3-2-((3aR,9bR)-cis-6-Methoxy-2,3,3a,4,5,9b-hexahydro-[1H]-benz[e]isoindol-1-yl)ethyl]-1H-pyrimido[5,4-b]indole-4(1H,3H)-one hydrochloride]",pA2 Dog Prostate [α-1A],[2]; Table 2b,9.71
"COc1cccc2c1CC[C@H]1CN(CCn3c(=O)[nH]c4c(sc5c(Cl)cccc54)c3=O)C[C@@H]21 [Example 56, 3-[2-((3aR,9bR)-cis-6-Methoxy-2,3,3a,4,5,9b-hexahydro-[1H]-benz[e]isoindol-1-yl)ethyl]-[1]-6-chloro-benzothieno[3,2-d]pyrimidine-2,4(1H,3H)-dione hydrochloride]",pA2 Dog Prostate [α-1A],[2]; Table 2b,7.11
"COc1cccc2c1CC[C@H]1CN(CCn3c(=O)c4sc5nccnc5c4n(Cc4ccccc4)c3=O)C[C@@H]21 [Example 96, hydrochloride]",pA2 Dog Prostate [α-1A],[2]; Table 2b,7.46
"COc1cccc2c1CC[C@H]1CN(CCn3c(=O)[nH]c4sc5ccccc5c4c3=O)C[C@@H]21 (relative stereo) [Example 13, 3-[2-(cis-6-Methoxy-2,3,3a,4,5,9b-hexahydro-[1H]-benz[e]isoindol-1-yl)ethyl]-[1]benzothieno[2,3-d]pyrimidine-2,4(1H,3H)-dione hydrochloride]",pA2 Dog Prostate [α-1A],[2]; Table 2b,7.68
"COc1cccc2c1[C@@H]1CN(CCCn3c(=O)[nH]c4c(sc5ccccc54)c3=O)C[C@@H]1CC2 (relative stereo) [Example 6, hydrochloride]",pA2 Dog Prostate [α-1A],[2]; Table 2b,6.91
"COc1cccc2c1CC[C@H]1CN(CCn3c(=O)[nH]c4c(sc5ccc(NC(C)=O)cc54)c3=O)C[C@@H]21 [Example 49, 3-[2-((3aR,9bR)-cis-6-Methoxy-2,3,3a,4,5,9b-hexahydro-[1H]-benz[e]isoindol-1-yl)ethyl]-[1]-8-acetamido-benzothieno[3,2-d]pyrimidine-2,4(1H,3H)-dione hydrochloride]",pA2 Dog Prostate [α-1A],[2]; Table 2b,7.84
"COc1cccc2c1CC[C@H]1CN(CCn3c(=O)[nH]c4c(sc5nc(C)c(C)nc54)c3=O)C[C@@H]21 [Example 103, hydrochloride]",pA2 Dog Prostate [α-1A],[2]; Table 2b,9.43
"COc1cccc2c1CC[C@H]1CN(CCn3c(=O)[nH]c4c(sc5cccc(C#N)c54)c3=O)C[C@@H]21 [Example 54, 3-2-((3aR,9bR)-cis-6-Methoxy-2,3,3a,4,5,9b-hexahydro-[1H]-benz[e]isoindol-1-yl)ethyl]-[1]-9-cyano-benzothieno[3,2-d]pyrimidine-2,4(1H,3H)-dione hydrochloride]",pA2 Dog Prostate [α-1A],[2]; Table 2b,8.74
"COc1cccc2c1CC[C@H]1CN(CCn3c(=O)[nH]c4c(sc5cc(C#N)ccc54)c3=O)C[C@@H]21 [Example 42, 3-[2-((3aR,9bR)-cis-6-Methoxy-2,3,3a,4,5,9b-hexahydro-[1H]-benz[e]isoindol-1-yl)ethyl]-[1]-7-cyano-benzothieno[3,2-d]pyrimidine-2,4(1H,3H)-dione hydrochloride]",pA2 Dog Prostate [α-1A],[2]; Table 2b,9.09
"COc1cccc2c1CC[C@H]1CN(CCN3CNc4c(sc5ncccc45)C3=O)C[C@@H]21 [Example 70, dihydrochloride]",pA2 Dog Prostate [α-1A],[2]; Table 2b,8.57
"COc1cccc2c1CC[C@H]1CN(CCn3cnc4c(sc5ccccc54)c3=O)C[C@@H]21 (relative stereo) [Example 28, dihydrochloride]",pA2 Dog Prostate [α-1A],[2]; Table 2b,7.75
"COc1cccc2c1CC[C@H]1CN(CCn3c(=O)[nH]c4c(sc5ccc(Cl)cc54)c3=O)C[C@@H]21 [Example 67, hydrochloride]",pA2 Dog Prostate [α-1A],[2]; Table 2b,8.98
"COc1cccc2c1CC[C@H]1CN(CCn3c(=O)[nH]c4c(sc5cccc(OC)c54)c3=O)C[C@@H]21 [Example 73, 3-[2-((3aR,9bR)-cis-6-Methoxy-2,3,3a,4,5,9b-hexahydro-[1H]-benz[e]isoindol-1-yl)ethyl]-[1]-9-methoxy-benzothieno[3,2-d]pyrimidine-2,4(1H,3H)-dione hydrochloride]",pA2 Dog Prostate [α-1A],[2]; Table 2b,8.42
"COc1cccc2c1[C@@H]1CN(CCn3c(=O)[nH]c4c([nH]c5ccccc54)c3=O)C[C@@H]1CC2 [Example 24, hydrochloride]",pA2 Dog Prostate [α-1A],[2]; Table 2b,8.6
